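Protocol summary: plate cells (96-well), add compound at 5 concentrations, incubate 48 h, interpolate endpoints linearly. GI50 marks 50% less growth. The concentration for full growth arrest is given as TGI.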
Experiments:
Experiment in all cases: inhibition of tumour cell growth, NCI panel, 48 h
786-0 renal = tested on: 786-0 renal
A498 renal = tested on: A498 renal
A549 NSCLC = tested on: A549 NSCLC
ACHN renal = tested on: ACHN renal
BT-549 breast = tested on: BT-549 breast
CAKI-1 renal = tested on: CAKI-1 renal
CCRF-CEM leukemia = tested on: CCRF-CEM leukemia
COLO 205 colon = tested on: COLO 205 colon
DU-145 prostate = tested on: DU-145 prostate
EKVX NSCLC = tested on: EKVX NSCLC
HCC-2998 colon = tested on: HCC-2998 colon
HCT-116 colon = tested on: HCT-116 colon
HCT-15 colon = tested on: HCT-15 colon
HL-60(TB) leukemia = tested on: HL-60(TB) leukemia
HOP-62 NSCLC = tested on: HOP-62 NSCLC
HOP-92 NSCLC = tested on: HOP-92 NSCLC
HS 578T breast = tested on: HS 578T breast
HT29 colon = tested on: HT29 colon
IGROV1 ovarian = tested on: IGROV1 ovarian
K-562 leukemia = tested on: K-562 leukemia
KM12 colon = tested on: KM12 colon
LOX IMVI melanoma = tested on: LOX IMVI melanoma
M14 melanoma = tested on: M14 melanoma
MALME-3M melanoma = tested on: MALME-3M melanoma
MCF7 breast = tested on: MCF7 breast
MDA-MB-231 breast = tested on: MDA-MB-231 breast
MOLT-4 leukemia = tested on: MOLT-4 leukemia
NCI-H226 lung = tested on: NCI-H226 lung
NCI-H23 lung = tested on: NCI-H23 lung
NCI-H460 lung = tested on: NCI-H460 lung
NCI-H522 lung = tested on: NCI-H522 lung
NCI/ADR-RES ovarian = tested on: NCI/ADR-RES ovarian
OVCAR-3 ovarian = tested on: OVCAR-3 ovarian
OVCAR-4 ovarian = tested on: OVCAR-4 ovarian
OVCAR-5 ovarian = tested on: OVCAR-5 ovarian
OVCAR-8 ovarian = tested on: OVCAR-8 ovarian
PC-3 prostate = tested on: PC-3 prostate
RPMI-8226 leukemia = tested on: RPMI-8226 leukemia
SF-268 CNS = tested on: SF-268 CNS
SF-295 CNS = tested on: SF-295 CNS
SF-539 CNS = tested on: SF-539 CNS
SK-MEL-2 melanoma = tested on: SK-MEL-2 melanoma
SK-MEL-28 melanoma = tested on: SK-MEL-28 melanoma
SK-MEL-5 melanoma = tested on: SK-MEL-5 melanoma
SK-OV-3 ovarian = tested on: SK-OV-3 ovarian
SN12C renal = tested on: SN12C renal
SNB-19 CNS = tested on: SNB-19 CNS
SNB-75 CNS = tested on: SNB-75 CNS
SR leukemia = tested on: SR leukemia
SW-620 colon = tested on: SW-620 colon
T-47D breast = tested on: T-47D breast
TK-10 renal = tested on: TK-10 renal
U251 CNS = tested on: U251 CNS
UACC-257 melanoma = tested on: UACC-257 melanoma
UACC-62 melanoma = tested on: UACC-62 melanoma
UO-31 renal = tested on: UO-31 renal
MDA-MB-435 = tested on: MDA-MB-435
RXF 393 renal = tested on: RXF 393 renal

## CCc1cccc2c3c(sc12)C(c1ccc(F)cc1)C(C#N)=C(/N=C/c1ccc(Cl)cc1)O3 (stereo not drawn)
786-0 renal
  GI50: 661 nM
  TGI: > 100000 nM
A498 renal
  GI50: > 100000 nM
  TGI: > 100000 nM
A549 NSCLC
  GI50: 506 nM
  TGI: > 100000 nM
ACHN renal
  GI50: 824 nM
  TGI: > 100000 nM
BT-549 breast
  GI50: 2050 nM
  TGI: 7840 nM
CAKI-1 renal
  GI50: 149 nM
  TGI: > 100000 nM
CCRF-CEM leukemia
  GI50: 324 nM
  TGI: 44200 nM
COLO 205 colon
  GI50: 373 nM
  TGI: 2950 nM
DU-145 prostate
  GI50: 579 nM
  TGI: > 100000 nM
EKVX NSCLC
  GI50: 488 nM
  TGI: > 100000 nM
HCC-2998 colon
  GI50: 1140 nM
  TGI: > 100000 nM
HCT-116 colon
  GI50: 383 nM
  TGI: > 100000 nM
HCT-15 colon
  GI50: 355 nM
  TGI: > 100000 nM
HL-60(TB) leukemia
  GI50: 222 nM
  TGI: 649 nM
HOP-62 NSCLC
  GI50: 312 nM
  TGI: > 100000 nM
HOP-92 NSCLC
  GI50: 22400 nM
  TGI: > 100000 nM
HS 578T breast
  GI50: 255 nM
  TGI: 80200 nM
HT29 colon
  GI50: 323 nM
  TGI: 36500 nM
IGROV1 ovarian
  GI50: 498 nM
  TGI: > 100000 nM
K-562 leukemia
  GI50: 128 nM
  TGI: > 100000 nM
KM12 colon
  GI50: 701 nM
  TGI: > 100000 nM
LOX IMVI melanoma
  GI50: 576 nM
  TGI: > 100000 nM
M14 melanoma
  GI50: 335 nM
  TGI: > 100000 nM
MALME-3M melanoma
  GI50: 384 nM
  TGI: > 100000 nM
MCF7 breast
  GI50: 392 nM
  TGI: > 100000 nM
MDA-MB-231 breast
  GI50: 364 nM
  TGI: > 100000 nM
MOLT-4 leukemia
  GI50: 519 nM
  TGI: > 100000 nM
NCI-H226 lung
  GI50: 379 nM
  TGI: 45900 nM
NCI-H23 lung
  GI50: 578 nM
  TGI: > 100000 nM
NCI-H460 lung
  GI50: 427 nM
  TGI: > 100000 nM
NCI-H522 lung
  GI50: 66 nM
  TGI: 381 nM
NCI/ADR-RES ovarian
  GI50: 192 nM
  TGI: 683 nM
OVCAR-3 ovarian
  GI50: 709 nM
  TGI: > 100000 nM
OVCAR-4 ovarian
  GI50: 97600 nM
  TGI: > 100000 nM
OVCAR-5 ovarian
  GI50: 421 nM
  TGI: > 100000 nM
OVCAR-8 ovarian
  GI50: 500 nM
  TGI: > 100000 nM
PC-3 prostate
  GI50: 501 nM
  TGI: > 100000 nM
RPMI-8226 leukemia
  GI50: 387 nM
  TGI: > 100000 nM
SF-268 CNS
  GI50: 6260 nM
  TGI: > 100000 nM
SF-295 CNS
  GI50: 278 nM
  TGI: > 100000 nM
SF-539 CNS
  GI50: 208 nM
  TGI: 648 nM
SK-MEL-2 melanoma
  GI50: 325 nM
  TGI: 78000 nM
SK-MEL-28 melanoma
  GI50: 492 nM
  TGI: > 100000 nM
SK-MEL-5 melanoma
  GI50: 319 nM
  TGI: 18000 nM
SK-OV-3 ovarian
  GI50: 412 nM
  TGI: > 100000 nM
SN12C renal
  GI50: 430 nM
  TGI: > 100000 nM
SNB-19 CNS
  GI50: 988 nM
  TGI: > 100000 nM
SNB-75 CNS
  GI50: 376 nM
  TGI: 79800 nM
SR leukemia
  GI50: 402 nM
  TGI: 19800 nM
SW-620 colon
  GI50: 471 nM
  TGI: > 100000 nM
T-47D breast
  GI50: 450 nM
  TGI: > 100000 nM
TK-10 renal
  GI50: 6800 nM
  TGI: > 100000 nM
U251 CNS
  GI50: 369 nM
  TGI: 34200 nM
UACC-257 melanoma
  GI50: 43400 nM
  TGI: > 100000 nM
UACC-62 melanoma
  GI50: 352 nM
  TGI: > 100000 nM
UO-31 renal
  GI50: 553 nM
  TGI: > 100000 nM

## c1ccc(-c2n(Cc3ccc4ccccc4c3)c3c4ccccc4c4ccccc4c3[n+]2Cc2ccc3ccccc3c2)cc1
786-0 renal
  GI50: 337 nM
  TGI: 1340 nM
A498 renal
  GI50: 337 nM
  TGI: 1230 nM
ACHN renal
  GI50: 708 nM
  TGI: 1930 nM
BT-549 breast
  GI50: 316 nM
  TGI: 1290 nM
CAKI-1 renal
  GI50: 389 nM
  TGI: 1520 nM
CCRF-CEM leukemia
  GI50: 357 nM
  TGI: 1750 nM
COLO 205 colon
  GI50: 267 nM
  TGI: 795 nM
DU-145 prostate
  GI50: 406 nM
  TGI: 1520 nM
EKVX NSCLC
  GI50: 552 nM
  TGI: 2030 nM
HCC-2998 colon
  GI50: 407 nM
  TGI: 1580 nM
HCT-116 colon
  GI50: 183 nM
  TGI: 1140 nM
HCT-15 colon
  GI50: 966 nM
  TGI: 2630 nM
HL-60(TB) leukemia
  GI50: 157 nM
  TGI: 380 nM
HOP-62 NSCLC
  GI50: 358 nM
  TGI: 1590 nM
HOP-92 NSCLC
  GI50: 211 nM
  TGI: 740 nM
HS 578T breast
  GI50: 434 nM
  TGI: 2050 nM
HT29 colon
  GI50: 179 nM
  TGI: 1380 nM
IGROV1 ovarian
  GI50: 192 nM
  TGI: 1340 nM
K-562 leukemia
  GI50: 271 nM
  TGI: 1180 nM
KM12 colon
  GI50: 395 nM
  TGI: 1510 nM
LOX IMVI melanoma
  GI50: 177 nM
  TGI: 355 nM
MCF7 breast
  GI50: 304 nM
  TGI: 1360 nM
MDA-MB-231 breast
  GI50: 313 nM
  TGI: 1060 nM
MDA-MB-435
  GI50: 340 nM
  TGI: 1250 nM
MOLT-4 leukemia
  GI50: 377 nM
  TGI: 1390 nM
NCI-H226 lung
  GI50: 408 nM
  TGI: 1850 nM
NCI-H23 lung
  GI50: 228 nM
  TGI: 790 nM
NCI-H522 lung
  GI50: 340 nM
  TGI: 1630 nM
NCI/ADR-RES ovarian
  GI50: 1630 nM
  TGI: 3660 nM
OVCAR-3 ovarian
  GI50: 351 nM
  TGI: 1230 nM
OVCAR-4 ovarian
  GI50: 298 nM
  TGI: 1270 nM
OVCAR-5 ovarian
  GI50: 423 nM
  TGI: 1700 nM
PC-3 prostate
  GI50: 313 nM
  TGI: 1220 nM
RPMI-8226 leukemia
  GI50: 261 nM
  TGI: 1040 nM
RXF 393 renal
  GI50: 280 nM
  TGI: 1030 nM
SF-268 CNS
  GI50: 441 nM
  TGI: 1840 nM
SF-295 CNS
  GI50: 282 nM
  TGI: 1110 nM
SF-539 CNS
  GI50: 375 nM
  TGI: 1400 nM
SK-MEL-2 melanoma
  GI50: 294 nM
  TGI: 853 nM
SK-MEL-28 melanoma
  GI50: 569 nM
  TGI: 1870 nM
SK-MEL-5 melanoma
  GI50: 203 nM
  TGI: 437 nM
SK-OV-3 ovarian
  GI50: 317 nM
  TGI: 1120 nM
SN12C renal
  GI50: 323 nM
  TGI: 1210 nM
SNB-19 CNS
  GI50: 364 nM
  TGI: 1450 nM
SNB-75 CNS
  GI50: 303 nM
  TGI: 1400 nM
SR leukemia
  GI50: 245 nM
  TGI: 825 nM
SW-620 colon
  GI50: 329 nM
  TGI: 1370 nM
T-47D breast
  GI50: 367 nM
  TGI: 1840 nM
TK-10 renal
  GI50: 468 nM
  TGI: 2000 nM
U251 CNS
  GI50: 312 nM
  TGI: 1560 nM
UACC-257 melanoma
  GI50: 328 nM
  TGI: 1240 nM
UACC-62 melanoma
  GI50: 343 nM
  TGI: 1400 nM
UO-31 renal
  GI50: 1550 nM
  TGI: 3220 nM

Reference: PubChem BioAssay (NCI)
